Two compounds from publication PMC8514546, “Structural basis of the P4B ATPase lipid flippase activity” (Nature Communications, 2021) can be followed below.

The target of assay [1] is T1, Neo1 (Saccharomyces cerevisiae, UniProt P40527).
T1 construct: full length (1151 residues), N-terminal triple FLAG tag, overexpressed in S. cerevisiae from pRS423 with GAP promoter; monomer, purified in LMNG/CHS
T1 sequence (P40527 1-1151): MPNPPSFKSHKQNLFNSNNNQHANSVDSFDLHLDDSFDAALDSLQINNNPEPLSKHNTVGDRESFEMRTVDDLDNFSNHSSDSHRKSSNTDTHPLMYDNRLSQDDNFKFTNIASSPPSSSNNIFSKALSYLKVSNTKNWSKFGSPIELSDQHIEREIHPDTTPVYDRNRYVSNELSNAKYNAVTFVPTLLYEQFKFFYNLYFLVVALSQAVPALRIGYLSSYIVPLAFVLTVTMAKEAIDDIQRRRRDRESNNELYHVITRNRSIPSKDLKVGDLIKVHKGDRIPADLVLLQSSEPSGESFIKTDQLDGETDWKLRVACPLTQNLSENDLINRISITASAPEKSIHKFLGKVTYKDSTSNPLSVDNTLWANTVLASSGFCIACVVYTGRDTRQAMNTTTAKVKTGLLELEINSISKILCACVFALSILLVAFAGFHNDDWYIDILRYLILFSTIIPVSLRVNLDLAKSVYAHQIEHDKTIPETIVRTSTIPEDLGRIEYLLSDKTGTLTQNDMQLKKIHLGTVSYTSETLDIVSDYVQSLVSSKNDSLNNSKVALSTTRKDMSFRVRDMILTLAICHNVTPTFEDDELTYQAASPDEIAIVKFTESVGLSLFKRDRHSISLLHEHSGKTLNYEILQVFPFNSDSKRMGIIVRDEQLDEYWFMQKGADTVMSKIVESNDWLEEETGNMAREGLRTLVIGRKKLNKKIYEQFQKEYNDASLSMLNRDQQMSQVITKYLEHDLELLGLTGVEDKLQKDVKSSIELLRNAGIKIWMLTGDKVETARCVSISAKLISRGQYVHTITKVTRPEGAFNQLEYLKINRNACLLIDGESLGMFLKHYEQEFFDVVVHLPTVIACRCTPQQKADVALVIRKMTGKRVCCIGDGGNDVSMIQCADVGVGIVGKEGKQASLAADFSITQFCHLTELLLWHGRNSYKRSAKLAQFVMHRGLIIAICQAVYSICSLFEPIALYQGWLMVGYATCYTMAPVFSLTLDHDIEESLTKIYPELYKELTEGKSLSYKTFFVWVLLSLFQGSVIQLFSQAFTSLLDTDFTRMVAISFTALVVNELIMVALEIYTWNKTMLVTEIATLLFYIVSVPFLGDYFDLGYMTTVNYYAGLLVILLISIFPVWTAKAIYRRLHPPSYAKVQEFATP
Put plainly: cryo-EM structure, […] Å. It counts as binding. Conditions: E1-ATP state; AMPPCP at the N and P domain interface; 1 mM (Results) or 2 mM (Methods) AMPPCP, 5 mM MgCl2.

For assay [2], the target named is T1, Neo1. The assay is described as follows: lipid-stimulated ATP hydrolysis, released phosphate by BIOMOL Green. It counts as biochemical. Conditions: 0.25 mM ATP, 10 mM MgCl2, pH 7.4, 37 °C, LMNG/CHS, lipid in cholate; transport substrate, acyl chain not stated.

Turning to `Nc1ncnc2c1ncn2[C@@H]1O[C@H](COP(=O)(O)OP(=O)(O)CP(=O)(O)O)[C@@H](O)[C@H]1O` [AMPPCP], the “cryo-EM structure, 5.6 Å” value on Neo1 [1] was “the AMPPCP density is clear and the molecule stabilizes the interface between the N and P domains”.

As usually defined, the Km is the concentration of substrate that gives half-maximal velocity. Turning to lyso-PS, the Km at Neo1 [2] came to 50.3 ± 8.8 µM.
